These results are taken from ChEMBL document CHEMBL5727488, “3-indol substituted derivatives, pharmaceutical compositions and methods for use” (2020).

The structures appear in SMILES notation.

This assay deals with Tryptophan 2,3-dioxygenase (Homo sapiens, UniProt P48775). The assay is described as follows: Assay for TDO2 enzymatic activity determination: To measure the TDO2 activity, the procedure described in Dolusic et al. J. Med. Chem.; 2011, 54, […] was adapted: the reaction mixture contained (final concentrations) potassium phosphate buffer (50 mM, pH 7.5), ascorbic acid (0.25 M), methylene blue (0.125 μM), catalase (40 units/mL, from bovine liver, Sigma), and human recombinant TDO2 enzyme (prepared as described in Dolusic et al. J. Med. Chem.; 2011, 54, 5320-5334; 0.9 μg) without or with the compounds of the present invention at the indicated concentrations (total volume 112.5 μL). The reaction was initiated by the addition of 37.5 μL of L-Trp (final concentration 1 mM) at room temperature. The reaction was conducted at room temperature during one hour and stopped by the addition of 30 μL of 30% (w/v) trichloroacetic acid.To convert N-formylkynurenine into kynurenine, the reaction mixture was incubated at 65° C. for 30 min. Then 150 μL of the reaction mixture was mixed with 120 μL of 2.5% (w/v) 4-(dimethylamino)-benzaldehyde in acetic acid and incubated for 5 min at room temperature. Kynurenine concentrations were determined by measuring the absorbance at 480 nm. A standard curve was made with pure kynurenine. The TDO activity was measured as described above using ten serial concentrations of the compounds of the present invention. […].
Sequence of Tryptophan 2,3-dioxygenase (P48775 whole entry): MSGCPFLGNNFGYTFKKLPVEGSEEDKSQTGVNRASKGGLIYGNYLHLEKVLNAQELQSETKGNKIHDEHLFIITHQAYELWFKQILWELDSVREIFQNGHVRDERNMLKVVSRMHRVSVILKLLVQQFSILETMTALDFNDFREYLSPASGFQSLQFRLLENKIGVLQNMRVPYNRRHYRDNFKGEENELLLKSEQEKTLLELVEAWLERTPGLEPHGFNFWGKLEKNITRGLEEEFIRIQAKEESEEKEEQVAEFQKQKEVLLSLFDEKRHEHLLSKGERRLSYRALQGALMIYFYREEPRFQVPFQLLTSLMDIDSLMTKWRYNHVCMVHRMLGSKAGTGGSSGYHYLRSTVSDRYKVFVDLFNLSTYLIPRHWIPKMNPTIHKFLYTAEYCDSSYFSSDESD

In the case of `C[C@@H](CO)NS(=O)(=O)c1ccc(-c2c[nH]c3cc(F)ccc23)cc1`, the concentration for half-maximal inhibition (IC50) was 840 nM.

For orientation: IC50 means the concentration that gives 50% inhibition.
